Experimental data as given in patent US8816102B2, “Compounds” (Givaudan S.A., priority 2009, dated 2014).

Key:
Set-up in all cases: species or system human
[1] = Sensory panel tasting of 0.3% NaCl solution with and without compound; settings: 0.3% NaCl and 10 ppm compound; reference solution A (0.3% NaCl): salty; trained panel of 20 women
Procedure: (§1) Two solutions were prepared:
A a solution of 0.3% NaCl
B a solution of 0.3% NaCl and 10 ppm Example 1 compound
(§2) The samples were tasted by a trained sensory panel composed of 20 women aged between 30 and 60.
B a solution of 0.3% NaCl and 10 ppm Example 5 compound.

[2] = Use in tomato soup, tasted by flavourists; settings: tomato soup containing 10 ppm compound; 4 flavourists
Procedure: A tomato soup mix was prepared from 9.4 g of sodium chloride, 1 g of mono sodium glutamate, 0.08 g ribonucleotides (ex yeast), 32 g of tomato powder (ex Spreda), 25.1 g of glucose, 21 g of starch (Ultrasperse 5 ex National Starch), 5 g of palm fat powder, 3 g of yeast powder, 1 g on onion powder, 0.15 g of carrot powder, 0.05 g of ground white pepper, 0.3 g celery extract powder, 0.05 g of ground laurel leaf powder, and 1.85 g of sucrose. 25 G of the well mixed ingredients was added to 250 g of boiling water and stirred until completely dissolved.
The reference soup was compared with a batch of the same soup containing 10 ppm of N-(2-hydroxyethyl)-2-(benzo[1,3]dioxol-5-yl)-2-oxoacetamide as prepared in example 2.

[3] = Use in potato chips, tasted by trained sensory panel
Procedure: Plain potato chips were prepared.
One part was flavoured with 1.2% sodium chloride (sample A)
One part was flavoured with 1.2% sodium chloride and 0.3% MSG (sample b)
One part was flavoured with 1.2% sodium chloride and 2.5 ppm N-(4-heptyl)-2-(benzo[1,3]dioxol-5-yl)-2-oxo-acetamide as prepared in example 3 (sample C).
as §2

[4] = Use in tomato ketchup, tasted by flavourists; settings: 4 flavourists
Procedure: A tomato ketchup was prepared from 19% tomato paste (28-30% dry weight), 8% of vinegar (15%), 3% of sodium chloride, 20% of sugar and 50% of water.
To one half of the batch was added 2 ppm of N-(4-heptyl) 2-(4-hydroxy-3-methyxophenol)-2-oxoacetamide (Example 5)
A batch of tomato ketchup was prepared as described in Example 12. To one half of the batch was added 20 ppm N-(4-hepthyl) 4-hydroxy-3-methoxy-mandelic amide as prepared in Example 7.

[5] = Sensory panel tasting of 0.3% NaCl and 0.03% MSG solution with and without compound; settings: 0.3% NaCl, reference solution A: salty, umami, trained panel of 20 women
Procedure: as §1
A a solution of 0.3% NaCl and 0.03% MSG
B a solution of 0.3% NaCl and 0.03% MSG and 10 ppm Example 6 compound.
as §2
A a solution of 0.3% NaCl, 0.03% MSG
B a solution of 0.3% NaCl, 0.03% MSG and 10 ppm N-heptyl-2-oxo-3-phenylpropionamide as prepared in example 9.
B a solution of 0.3% NaCl, 0.03% MSG and 1 ppm N-(4-heptyl)-2-oxo-3-phenylpropionamide as prepared in example 10.
B a solution of 0.3% NaCl, 0.03% MSG and 1 ppm N-heptyl 3-methoxy-4-hydroxy-mandelic acid as prepared in Example 8.

O=C(NCCO)C(=O)c1ccccc1 [Example 1, N-(2-hydroxyethyl)-2-oxo-2-phenylacetamide]
taste description of solution B [1]: more salty, salivating

O=C(NCCO)C(=O)c1ccc2c(c1)OCO2 [Example 2, 2-(benzo[d][1.3]dioxol-5-yl)-N-(2-hydroxyethyl)-2-oxoacetamide]
taste of test soup compared with base soup [2]: more umami, was more lingering and was more complex

CCCC(CCC)NC(=O)C(=O)c1ccc2c(c1)OCO2 [Example 3, 2-(benzo[d][1,3]dioxol-5-yl)-N-(heptan-4-yl)-2-oxoacetamide]
taste description of potato chips sample C ([3]; 1.2% sodium chloride and 2.5 ppm compound, sample A (1.2% sodium chloride): salty): salty, umami, long lasting, savoury, bouillon
panel preference ([3]; sample C (1.2% sodium chloride and 2.5 ppm compound) versus samples A and B): preferred over the other two samples
off-note observed ([3]; sample C, 1.2% sodium chloride and 2.5 ppm compound): slight bitter off-note

CCCCCCCNC(=O)C(=O)c1ccc(O)c(OC)c1 [Example 5, N-heptyl-2-(4-hydroxy-3-methoxyphenyl)-2-oxoacetamide]
taste description of solution B [1]: more salty, salivating, lingering
taste of test ketchup compared with base ketchup ([4]; tomato ketchup with 2 ppm compound): clearly more umami, more sweet and more full/complex

CC(=O)C(=O)NCCO [Example 6, N-(2-hydroxyethyl)-2-oxopropanamide]
taste description of solution B ([5]; 0.03% MSG and 10 ppm compound): more salty, more umami

CCCC(CCC)NC(=O)C(O)c1ccc(O)c(OC)c1 (stereo not shown) [Example 7, N-(heptan-4-yl)-2-hydroxy-2-(4-hydroxy-3-methoxyphenyl)acetamide]
taste of test ketchup compared with base ketchup ([4]; tomato ketchup with 20 ppm compound): more umami, more bouillon-like and more full/complex

CCCCCCCNC(=O)C(O)c1ccc(O)c(OC)c1 (stereo not shown) [Example 8, N-heptyl-2-hydroxy-2-(4-hydroxy-3-methoxyphenyl)acetamide]
taste description of solution B ([5]; 0.03% MSG and 1 ppm compound): salty, more umami, slightly pungent

CCCCCCCNC(=O)C(=O)Cc1ccccc1 [Example 9, N-heptyl-2-oxo-3-phenylpropanamide]
taste description of solution B ([5]; 0.03% MSG and 10 ppm compound): salty, stronger umami, more bouillon-like

CCCC(CCC)NC(=O)C(=O)Cc1ccccc1 [Example 10, N-(heptan-4-yl)-2-oxo-3-phenylpropanamide]
taste description of solution B ([5]; 0.03% MSG and 1 ppm compound): salty, more umami, more bouillon-like, slightly tingling

N[C@@H](CCC(=O)O)C(=O)[O-].[Na+] [MSG, monosodium glutamate, reference compound]
taste description of potato chips sample B ([3]; 1.2% sodium chloride and 0.3% MSG): salty and umami
